US12251407B2, “Use of Megamonas funiformis in preventing and/or treating metabolic diseases” (BGI SHENZHEN, priority 2018, dated 2025)
Marks after values point to notes of the source that are not given here.

What was measured:
AF24-28AC = assay: Antibiotic sensitivity of AF24-28AC, drug sensitive paper method; type: cell-based, Megamonas funiformis; settings: for Diameter of inhibition zone: antibiotic susceptibility papers on AF24-28AC plates, 37° C., 48 hours; for Sensitivity of AF24-28AC to the antibiotic (resistant / sensitive): drug sensitive paper method
Protocol: The sensitivity of AF24-28AC to 20 common antibiotics was tested by the drug sensitive paper method. 100 μl of AF24-28AC bacterial solution cultured to the logarithmic phase was spread plated. Antibiotic susceptibility papers (purchased from Hangzhou Microbial Reagent Co. LTD) were affixed on the medium surface of plates, cultured at 37° C. for 48 hours, after which the size of inhibition zone was measured.

T2D mice model [1] = assay: T2D animal model (STZ plus high-fat feed), body weight; type: in vivo, C57bL/6 mice; settings: gavage
Protocol: (§1) The T2D animal model is constructed by using C57bL/6 mice (purchased from Guangdong Medical Experimental Animal Center) at 8 weeks old and 20±2 g of body weight. The mice are housed in a specific pathogen free (SPF) environment and adaptively fed for 1 week, followed by grouping and modeling. The T2D animal model is induced by injection of streptozotocin (STZ) along with feeding high-fat feed, and the mice having a fasting blood glucose (FBG) reaching 10 mM/L can be used as a T2D mice model. Fifty mice selected for experiments are randomly divided into 5 groups. • Model group: the T2D mice model was administered with saline solution by gavage; • Bacterial agent group 1: the T2D mice model was administered with the DSM 19343 bacterial solution (1×10^8 cfu/m1) by gavage; • Bacterial agent group 2: the T2D mice model was administered with the AF24-28AC bacterial solution (1×10^8 cfu/m1) by gavage; • Bacterial agent group 3: the T2D mice model was administered with the JCM 14723 bacterial solution (1×10^8 cfu/m1) by gavage; • Metformin treatment group: the T2D mice model was treated with the positive drug metformin.
(§2) The experiment was carried out based on the different groups. After the construction of T2D mice model (i.e., FBG>10), the treatment was started and lasted for 2 months. The food intake amount and body weight of mice were recorded daily. Blood of mice was collected from the tail vein every week for detection of fasting blood glucose. The oral glucose tolerance test (OGTT) of mice was measured at week 4 of treatment and at the end of the experiment.

T2D mice model [2] = assay: T2D animal model, fasting blood glucose; type: in vivo, C57bL/6 mice; settings: tail vein blood
Protocol: as §1, §2

T2D mice model [3] = assay: T2D animal model, oral glucose tolerance test (OGTT); type: in vivo, C57bL/6 mice
Protocol: as §1, §2

| Molecule | Diameter of inhibition zone (AF24-28AC) | further results |
| --- | --- | --- |
| NCC[C@H](O)C(=O)N[C@@H]1C[C@H](N)[C@@H](O[C@H]2O[C@H](CN)[C@@H](O)[C@H](O)[C@H]2O)[C@H](O)[C@H]1O[C@H]1O[C@H](CO)[C@@H](O)[C@H](N)[C@H]1O [Amikacin] | 2.6 cm | – |
| CC1(C)S[C@@H]2[C@H](NC(=O)[C@H](N)c3ccccc3)C(=O)N2[C@H]1C(=O)O [Ampicillin] | 1.0 cm | – |
| CC1(C)S[C@@H]2[C@H](NC(=O)C(C(=O)O)c3ccccc3)C(=O)N2[C@H]1C(=O)O (some centres unmarked) [Carbenicillin] | 1.2 cm | – |
| CC1=C(C(=O)O)N2C(=O)[C@@H](NC(=O)[C@H](N)c3ccccc3)[C@H]2SC1 [Cefalexin] | 2.2 cm | – |
| Cc1nnc(SCC2=C(C(=O)O)N3C(=O)[C@@H](NC(=O)Cn4cnnn4)[C@H]3SC2)s1 [Cefazolin] | 4.0 cm | – |
| CCN1CCN(C(=O)N[C@@H](C(=O)N[C@@H]2C(=O)N3C(C(=O)O)=C(CSc4nnnn4C)CS[C@H]23)c2ccc(O)cc2)C(=O)C1=O [Cefoperazone] | 0.0 cm | Sensitivity of AF24-28AC to the antibiotic (resistant / sensitive) (AF24-28AC): resistant |
| CC1=C(C(=O)O)N2C(=O)[C@@H](NC(=O)[C@H](N)C3=CCC=CC3)[C@H]2SC1 [Cefradine] | 0.8 cm | – |
| CO/N=C(\C(=O)N[C@@H]1C(=O)N2C(C(=O)O)=C(CSc3nc(=O)c(=O)[nH]n3C)CS[C@H]12)c1csc(N)n1 [Ceftriaxone Sodium] | 1.0 cm | – |
| CO/N=C(\C(=O)N[C@@H]1C(=O)N2C(C(=O)O)=C(COC(N)=O)CS[C@H]12)c1ccco1 [Cefuroxime] | 3.8 cm | – |
| C[C@H]1c2cccc(O)c2C(=O)C2=C(O)[C@]3(O)C(=O)C(C(N)=O)=C(O)[C@@H](N(C)C)[C@@H]3[C@@H](O)[C@@H]21 [Doxycycline] | 4.0 cm | – |
| CC[C@H]1OC(=O)[C@H](C)[C@@H](O[C@H]2C[C@@](C)(OC)[C@@H](O)[C@H](C)O2)[C@H](C)[C@@H](O[C@@H]2O[C@H](C)C[C@H](N(C)C)[C@H]2O)[C@](C)(O)C[C@@H](C)C(=O)[C@H](C)[C@@H](O)[C@]1(C)O [Erythromycin] | 1.3 cm | – |
| CC(C)(O/N=C(\C(=O)N[C@@H]1C(=O)N2C(C(=O)[O-])=C(C[n+]3ccccc3)CS[C@H]12)c1csc(N)n1)C(=O)O [Fortum (Ceftazidime), Ceftazidime] | 2.0 cm | – |
| NC[C@H]1O[C@H](O[C@H]2[C@H](O)[C@@H](O[C@H]3O[C@H](CO)[C@@H](O)[C@H](N)[C@H]3O)[C@H](N)C[C@@H]2N)[C@H](O)[C@@H](O)[C@@H]1O [Kanamycin] | 1.8 cm | – |
| CN(C)C(=N)N=C(N)N [Metformin, metformin] | – | Weight change Week 1 (T2D mice model [1]; Week 1): 20.33 g; Weight change Week 3 (T2D mice model [1]; Week 3): 22.36 g; Weight change Week 5 (T2D mice model [1]; Week 5): 24.33 g; Weight change Week 7 (T2D mice model [1]; Week 7): 25.86 g; Weight change Week 9 (T2D mice model [1]; Week 9, *P<0.05 relative to model group): 26.53* g; Fasting blood glucose Week 1 (T2D mice model [2]; Week 1): 16.9 mmol/L; Fasting blood glucose Week 3 (T2D mice model [2]; Week 3): 16.0 mmol/L; Fasting blood glucose Week 5 (T2D mice model [2]; Week 5): 14.3 mmol/L; Fasting blood glucose Week 7 (T2D mice model [2]; Week 7): 11.6* mmol/L; Fasting blood glucose Week 9 (T2D mice model [2]; Week 9): 10.3** mmol/L; Glucose tolerance (OGTT) blood glucose 0 minute (T2D mice model [3]; 0 minute after glucose by gavage): 9.3 mmol/L; Glucose tolerance (OGTT) blood glucose 30 minutes (T2D mice model [3]; 30 minutes after glucose by gavage): 19.4 mmol/L; Glucose tolerance (OGTT) blood glucose 60 minutes (T2D mice model [3]; 60 minutes after glucose by gavage): 16.6 mmol/L; Glucose tolerance (OGTT) blood glucose 90 minutes (T2D mice model [3]; 90 minutes after glucose by gavage): 11.7* mmol/L; Glucose tolerance (OGTT) blood glucose 120 minutes (T2D mice model [3]; 120 minutes after glucose by gavage): 10.4 mmol/L |
| CN(C)c1ccc(O)c2c1C[C@H]1C[C@H]3[C@H](N(C)C)C(O)=C(C(N)=O)C(=O)[C@@]3(O)C(O)=C1C2=O [Minocin (Minocycline), Minocycline] | 4.0 cm | – |
| Cc1onc(-c2ccccc2)c1C(=O)N[C@@H]1C(=O)N2[C@@H]1SC(C)(C)[C@@H]2C(=O)O [Oxacillin] | 0.0 cm | Sensitivity of AF24-28AC to the antibiotic (resistant / sensitive) (AF24-28AC): resistant |
| CCN1CCN(C(=O)N[C@@H](C(=O)N[C@@H]2C(=O)N3[C@@H]2SC(C)(C)[C@@H]3C(=O)O)c2ccccc2)C(=O)C1=O [Piperacillin] | 1.2 cm | – |
| CN(C)[C@@H]1C(O)=C(C(N)=O)C(=O)[C@@]2(O)C(O)=C3C(=O)c4c(O)cccc4[C@@](C)(O)[C@H]3C[C@@H]12 [Tetracycline] | 4.2 cm | – |
| Gentamicin | 1.7 cm | – |
| Neomycin | 1.3 cm | – |
| Penicillin | 0.0 cm | Sensitivity of AF24-28AC to the antibiotic (resistant / sensitive) (AF24-28AC): resistant |
